Source: US20220281848A1, “PYRAZOLE-SUBSTITUTED PYRROLIDINONES AS HERBICIDES” (FMC Corporation, priority 2019, published 2022)

Legend:
Format in all cases: in vivo
[1] = tested on: redroot pigweed (Amaranthus retroflexus, AMARE); test: Test A pre-emergence, redroot pigweed; conditions: after 13 d
Method in brief: (§1)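 Values are percent plant damage 13 d after a pre-emergence spray (15.625, 62.5 or 250 g/ha; acetone/water with 0.5% Tween 20) applied to pots one day post-sowing, under glasshouse conditions of 24/16° C. and twice-daily watering.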

[2] = tested on: velvetleaf (Abutilon theophrasti, ABUTH); test: Test A pre-emergence, velvetleaf; conditions: after 13 d
Method in brief: as §1

wheat = test: Test D pre-emergence, wheat seed treated with a herbicide safener; conditions: 100=total damage, 0=no damage
Description: (§2) A formulation containing 50 g/L of the test chemical was prepared by dissolving the active ingredient in a mixture of organic solvents and emulsifier, details of which are provided in the table. This formulation was then mixed with a small, variable amount of acetone to aid dissolution, before addition of a 0.2% v/v aqueous solution of an adjuvant, as the aqueous diluent, to form an aqueous spray solution which contains a predetermined concentration of the active ingredient.
(§3) This aqueous spray solution was then sprayed onto plants including maize and wheat that had been seed treated with a herbicide safener, after one day's cultivation (for pre-emergence) or after about 12 days' cultivation (for post-emergence). The plants were grown from seeds sown in standard soil, placed in a glasshouse under controlled conditions (at 24/18° C. or 20/16° C., day/night; 16 h light; 65% humidity). After spray application the plants were then grown in a glasshouse under the same conditions and watered twice daily. After 15 d for post-emergence and 20 DAA for pre-emergence the test was evaluated (100=total damage to plant; 0=no damage to plant).

plants = test: Test D post-emergence, other plants of Tables D2 and D4; conditions: post-emergence
Description: as §2, §3

SMILES: CCn1nc([C@H]2CN(C)C(=O)[C@@H]2C(=O)Nc2cccc(F)c2F)c2cc(F)ccc21 [Compound 8]
- damage to plant (100=total damage; 0=no damage) AMARE ([1]; Pre-Emergence at 15.625 g/ha): 0
- damage to plant (100=total damage; 0=no damage) AMARE ([1]; Pre-Emergence at 62.5 g/ha): 0
- damage to plant (100=total damage; 0=no damage) AMARE ([1]; Pre-Emergence at 250 g/ha): 0
- damage to plant (100=total damage; 0=no damage) ABUTH ([2]; Pre-Emergence at 15.625 g/ha): 0
- damage to plant (100=total damage; 0=no damage) ABUTH ([2]; Pre-Emergence at 62.5 g/ha): 0
- damage to plant (100=total damage; 0=no damage) ABUTH ([2]; Pre-Emergence at 250 g/ha): 0
- damage to plant, TRZAW (wheat; rate 15, 20 DAA): 0
- damage to plant, TRZAW (wheat; rate 30, 20 DAA): 0
- damage to plant, TRZAW (wheat; rate 60, 20 DAA): 0
- damage to plant, TRZAW (wheat; rate 130, 20 DAA): 0
- damage to plant, TRZAW (wheat; rate 250, 20 DAA): 0
- damage to plant, TRZAW (wheat; rate 500, 20 DAA): 0
- damage to plant (100=total damage to plant; 0=no damage to plant), ABUTH (plants; rate 130, evaluated after 15 d): 0
- damage to plant (100=total damage to plant; 0=no damage to plant), ABUTH (plants; rate 250, evaluated after 15 d): 0
- damage to plant (100=total damage to plant; 0=no damage to plant), ABUTH (plants; rate 500, evaluated after 15 d): 0
- damage to plant (100=total damage to plant; 0=no damage to plant), AMARE (plants; rate 130, evaluated after 15 d): 0
- damage to plant (100=total damage to plant; 0=no damage to plant), AMARE (plants; rate 250, evaluated after 15 d): 0
- damage to plant (100=total damage to plant; 0=no damage to plant), AMARE (plants; rate 500, evaluated after 15 d): 0
- damage to plant (100=total damage to plant; 0=no damage to plant), BIDPI (plants; rate 130, evaluated after 15 d): 0
- damage to plant (100=total damage to plant; 0=no damage to plant), BIDPI (plants; rate 250, evaluated after 15 d): 0
- damage to plant (100=total damage to plant; 0=no damage to plant), BIDPI (plants; rate 500, evaluated after 15 d): 0
- damage to plant (100=total damage to plant; 0=no damage to plant), BRAPL (plants; rate 130, evaluated after 15 d): 10
- damage to plant (100=total damage to plant; 0=no damage to plant), BRAPL (plants; rate 250, evaluated after 15 d): 70
- damage to plant (100=total damage to plant; 0=no damage to plant), BRAPL (plants; rate 500, evaluated after 15 d): 70
- damage to plant (100=total damage to plant; 0=no damage to plant), CYPES (plants; rate 130, evaluated after 15 d): 0
- damage to plant (100=total damage to plant; 0=no damage to plant), CYPES (plants; rate 250, evaluated after 15 d): 0
- damage to plant (100=total damage to plant; 0=no damage to plant), CYPES (plants; rate 500, evaluated after 15 d): 0
- damage to plant (100=total damage to plant; 0=no damage to plant), DIGSA (plants; rate 130, evaluated after 15 d): 0
- damage to plant (100=total damage to plant; 0=no damage to plant), DIGSA (plants; rate 250, evaluated after 15 d): 80
- damage to plant (100=total damage to plant; 0=no damage to plant), DIGSA (plants; rate 500, evaluated after 15 d): 80
- damage to plant (100=total damage to plant; 0=no damage to plant), ECHCG (plants; rate 130, evaluated after 15 d): 0
- damage to plant (100=total damage to plant; 0=no damage to plant), ECHCG (plants; rate 250, evaluated after 15 d): 80
- damage to plant (100=total damage to plant; 0=no damage to plant), ECHCG (plants; rate 500, evaluated after 15 d): 80
- damage to plant (100=total damage to plant; 0=no damage to plant), EPHHL (plants; rate 250, evaluated after 15 d): 30
- damage to plant (100=total damage to plant; 0=no damage to plant), EPHHL (plants; rate 500, evaluated after 15 d): 20
- damage to plant (100=total damage to plant; 0=no damage to plant), GLXMA (plants; rate 130, evaluated after 15 d): 0
- damage to plant (100=total damage to plant; 0=no damage to plant), GLXMA (plants; rate 250, evaluated after 15 d): 0
- damage to plant (100=total damage to plant; 0=no damage to plant), GLXMA (plants; rate 500, evaluated after 15 d): 0
- damage to plant (100=total damage to plant; 0=no damage to plant), IPOHE (plants; rate 130, evaluated after 15 d): 0
- damage to plant (100=total damage to plant; 0=no damage to plant), IPOHE (plants; rate 250, evaluated after 15 d): 0
- damage to plant (100=total damage to plant; 0=no damage to plant), IPOHE (plants; rate 500, evaluated after 15 d): 0
- damage to plant (100=total damage to plant; 0=no damage to plant), ORYSA (plants; rate 130, evaluated after 15 d): 0
- damage to plant (100=total damage to plant; 0=no damage to plant), ORYSA (plants; rate 250, evaluated after 15 d): 0
- damage to plant (100=total damage to plant; 0=no damage to plant), ORYSA (plants; rate 500, evaluated after 15 d): 10
- damage to plant (100=total damage to plant; 0=no damage to plant), PANMI (plants; rate 130, evaluated after 15 d): 0
- damage to plant (100=total damage to plant; 0=no damage to plant), PANMI (plants; rate 250, evaluated after 15 d): 0
- damage to plant (100=total damage to plant; 0=no damage to plant), PANMI (plants; rate 500, evaluated after 15 d): 0
- damage to plant (100=total damage to plant; 0=no damage to plant), SETFA (plants; rate 130, evaluated after 15 d): 0
- damage to plant (100=total damage to plant; 0=no damage to plant), SETFA (plants; rate 250, evaluated after 15 d): 60
- damage to plant (100=total damage to plant; 0=no damage to plant), SETFA (plants; rate 500, evaluated after 15 d): 80
- damage to plant (100=total damage to plant; 0=no damage to plant), SIDSP (plants; rate 130, evaluated after 15 d): 0
- damage to plant (100=total damage to plant; 0=no damage to plant), SIDSP (plants; rate 250, evaluated after 15 d): 0
- damage to plant (100=total damage to plant; 0=no damage to plant), SIDSP (plants; rate 500, evaluated after 15 d): 10
- damage to plant (100=total damage to plant; 0=no damage to plant), SORVU (plants; rate 130, evaluated after 15 d): 0
- damage to plant (100=total damage to plant; 0=no damage to plant), SORVU (plants; rate 250, evaluated after 15 d): 0
- damage to plant (100=total damage to plant; 0=no damage to plant), SORVU (plants; rate 500, evaluated after 15 d): 0
